Several values for one entry are separate records, joined by “and”; a condition that tells them apart may be missing. Identical values can stand only once.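 Following 48 hours of exposure in 96-well plates, responses at five concentrations were used to interpolate endpoints linearly. Here, GI50 denotes the concentration required for 50% inhibition of growth. The concentration for full growth arrest is given as TGI.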
How the values were obtained:
Test in all cases: NCI tumour cell line growth inhibition, 48 h
DLD-1 colon = tested on: DLD-1 colon
DMS 273 small cell lung = tested on: DMS 273 small cell lung
HOP-18 NSCLC = tested on: HOP-18 NSCLC
KM20L2 colon = tested on: KM20L2 colon
LXFL 529 NSCLC = tested on: LXFL 529 NSCLC
M19-MEL melanoma = tested on: M19-MEL melanoma
SNB-78 CNS = tested on: SNB-78 CNS
XF 498 CNS = tested on: XF 498 CNS
P388/ADR leukemia = tested on: P388/ADR leukemia
SN12K1 renal = tested on: SN12K1 renal
P388 leukemia = tested on: P388 leukemia

| Compound | TGI (DLD-1 colon) | TGI (DMS 273 small cell lung) | TGI (HOP-18 NSCLC) | TGI (KM20L2 colon) | TGI (LXFL 529 NSCLC) | TGI (M19-MEL melanoma) | TGI (SNB-78 CNS) | TGI (XF 498 CNS) | GI50 (DLD-1 colon) | GI50 (HOP-18 NSCLC) | GI50 (KM20L2 colon) | GI50 (M19-MEL melanoma) | TGI (P388/ADR leukemia) | TGI (SN12K1 renal) | GI50 (SNB-78 CNS) | GI50 (XF 498 CNS) | GI50 (DMS 273 small cell lung) | GI50 (LXFL 529 NSCLC) | TGI (P388 leukemia) |
| --- | --- | --- | --- | --- | --- | --- | --- | --- | --- | --- | --- | --- | --- | --- | --- | --- | --- | --- | --- |
| COC(=O)[C@@]12OC[C@]34C([C@@H](O)C1O)[C@@]1(C)CC(=O)C(O)=C(C)C1C[C@H]3OC(=O)[C@H](OC(=O)/C=C(/c1ccccc1)C(F)(F)F)[C@H]42 (stereo partly drawn) | > 25 µM | 4.87 µM | > 25 µM | 14 µM | 15.3 µM | 11 µM | > 25 µM | 10.6 µM |  |  |  |  |  |  |  |  |  |  |  |
| C=C1C(=O)O[C@@H]2OC3(C)CCC4C(C)CCC1C42OO3 (stereo partly drawn) | 4.72 µM and 4.65 µM | 14.2 µM and 13.2 µM | 34.5 µM and 30.2 µM | 24.1 µM |  | 14.7 µM and 13.9 µM | 19.8 µM | 24.3 µM and 3.88 µM | 1.02 µM | 20.1 µM | 11.1 µM | 2.44 µM | 1.2 µM | 15.6 µM and 15.1 µM | 3.66 µM | 12 µM |  |  |  |
| C/C(=N\NC(=O)c1cccnc1)c1cccc(/C(C)=N/NC(=O)c2cccnc2)n1.CC(=O)[O-].CC(=O)[O-].[Zn+2] | > 100 µM | 98.1 µM | > 26.9 µM | > 100 µM | > 100 µM | > 100 µM | > 100 µM |  |  | 2.55 µM |  |  |  |  | 32 µM |  | 2.15 µM | 0.836 µM |  |
| O=C1OC(c2ccc(Cl)cc2)(c2ccc(Cl)cc2)c2c1ccc1ccccc21 | > 100 µM | > 100 µM | > 100 µM | > 100 µM | > 100 µM | > 100 µM | > 100 µM | > 100 µM |  |  |  |  |  |  |  |  |  |  |  |
| COc1ccc(/C(Cl)=C(\C=O)c2ccccc2)cc1OC | > 100 µM | > 100 µM | > 100 µM | > 100 µM | 55.1 µM | > 100 µM | > 100 µM |  |  |  |  |  |  |  |  |  |  |  |  |
| C=CC[N+](CCO)(CCO)CCCCCCCCCCCCCCCCCC | 30.2 µM | 5.83 µM | 21.3 µM | 17.1 µM |  | 11.9 µM | 12.6 µM |  |  |  |  |  | > 49 µM | 20.5 µM |  |  |  |  | 1.21 µM |
| CCCCCCCC(=O)OCC(C[As](=O)(O)O)OC(=O)CCCCCCC (stereo not drawn) | 30.9 µM | 27.4 µM | 29.3 µM | 30.7 µM | 26.3 µM | 32.4 µM | 44.1 µM |  |  |  |  |  |  |  |  |  |  |  |  |
| C[C@H](N)C(=O)N[C@@H]1[C@H]2C(=C(O)C[C@@H](O)[C@@H]2O)C(=O)O[C@@H]1C | > 100 µM | > 100 µM | > 100 µM | > 100 µM |  | > 100 µM |  | > 100 µM |  |  |  |  | > 100 µM | > 100 µM |  |  |  |  | > 100 µM |
| COc1ccc(/C=N/n2cnc3c(c2=O)S/C(=C2/SC(=S)N(c4ccc(C)cc4)C2=O)N3c2ccccc2)cc1 |  | > 100 µM |  | > 100 µM | > 100 µM | > 100 µM |  |  |  |  |  |  |  |  |  |  |  |  |  |
| N/C(=N\N=C\c1cc2c(cc1Cl)OCO2)NO | > 100 µM | > 77.8 µM | > 100 µM | > 100 µM |  | > 100 µM | > 100 µM | > 34.2 µM |  |  |  |  | > 81.3 µM | > 100 µM |  |  |  |  | > 91.9 µM |

Reference: PubChem BioAssay (NCI)
